From US4927919A, “Chartreusin derivatives and salts thereof” (Ishihara Sangyo Kaisha, Ltd., priority 1985, dated 1990)

What was measured:
P-388 leukemia cells = assay: Antitumor activity against P-388 leukemia cells (i.p. implanted, i.v. drug); type: in vivo, BDF1 mice; details: Mus musculus, P388, iv, 720 h, i.v., 30-day observation, read-out: T/C of MST; for response vs control in vivo at 40 mg/kg: dose c: 40 mg/kg/d × 3 (days 1, 5, 9); for response vs control in vivo at 80 mg/kg: dose f: 80 mg/kg/d × 3 (days 1, 5, 9); for response vs control in vivo at 20 mg/kg: dose b: 20 mg/kg/d × 3 (days 1, 5, 9)
Method: BDF1 mice were implanted intraperitoneally with P-388 leukemia cells at a rate of 1×10^6 cells/mouse, and each drug to be tested was administered intravenously on the first, fifth and ninth days, or on the first and fifth days after the implantation. […] The T/C (%) was calculated based on the following equation: [formula]
The drugs tested were as follows: solutions prepared by dissolving each of compound Nos. 34, 36 and 43 to 46 in physiological saline; suspension or solutions prepared by dissolving each of compound Nos. 35, 38 and 49 to 55 in dimethylacetamide, followed by adding thereto a small amount of a surface active agent (e.g., Tween-80) and then physiological saline; and suspension or solutions prepared by mixing each of the other compounds and a small amount of a surface active agent (e.g., Tween-80), followed by adding thereto physiological saline.

[1] = Acute toxicity (LD50, single intravenous administration); design: species or system day mice; details: mouse, in vivo, mice, single i.v.
Text: In Table 15 are shown acute toxicity values (LD50, mg/kg) in day mice in the case of intravenously administering (once) each of the compounds of this invention in the form of preparations shown in the Preparation Examples shown in Table 16.

Compound	response vs control in vivo at 40 mg/kg (P-388 leukemia cells) [%]	response vs control in vivo at 80 mg/kg (P-388 leukemia cells) [%]	LD50 ([1]; Preparation Example 3) [mg/kg]	LD50 ([1]; Preparation Example 2) [mg/kg]	other results
COC1C(O)C(C)OC(OC2C(Oc3cccc4c(OC(=O)c5ccc[nH]5)c5c(=O)oc6ccc(C)c7c(=O)oc(c34)c5c67)OC(C)C3OC(c4ccccc4)OC32)C1O (stereo not drawn) [Compound 1]					response vs control in vivo at 20 mg/kg/day (P-388 leukemia cells; dose b': 20 mg/kg/d × 2 (days 1, 5)): 154%; response vs control in vivo at 40 mg/kg/day (P-388 leukemia cells; dose c': 40 mg/kg/d × 2 (days 1, 5)): 188%; LD50 ([1]; Preparation Example 1): ≥ 40 mg/kg
COC1C(O)C(C)OC(OC2C(Oc3cccc4c(OC(=O)C5CCCN5C(=O)OCc5ccccc5)c5c(=O)oc6ccc(C)c7c(=O)oc(c34)c5c67)OC(C)C3OC(C)(C)OC32)C1O (stereo not drawn) [Compound 3, 6-O-(N-carbobenzyloxy-prolyl)-3',4'-O-isopropylidene-chartreusin]	139	195	≥ 160		
COC1C(O)C(C)OC(OC2C(Oc3cccc4c(OC(=O)C5CCCN5C(=O)CNC(=O)CNC(=O)OCc5ccccc5)c5c(=O)oc6ccc(C)c7c(=O)oc(c34)c5c67)OC(C)C3OC(c4ccccc4)OC32)C1O (stereo not drawn) [Compound 4]				≥ 20	response vs control in vivo at 20 mg/kg (P-388 leukemia cells): 138%
COC1C(O)C(C)OC(OC2C(Oc3cccc4c(OC(=O)c5ccco5)c5c(=O)oc6ccc(C)c7c(=O)oc(c34)c5c67)OC(C)C3OC(C)(C)OC32)C1O (stereo not drawn) [Compound 5]		217			LD50 ([1]; Preparation Example 4): ≥ 80 mg/kg
COC1C(O)C(C)OC(OC2C(Oc3cccc4c(OC(=O)c5ccoc5)c5c(=O)oc6ccc(C)c7c(=O)oc(c34)c5c67)OC(C)C3OC(C)(C)OC32)C1O (stereo not drawn) [Compound 7]	149	194	≥ 80		
COC1C(O)C(C)OC(OC2C(Oc3cccc4c(OC(=O)c5ccc(Br)o5)c5c(=O)oc6ccc(C)c7c(=O)oc(c34)c5c67)OC(C)C3OC(C)(C)OC32)C1O (stereo not drawn) [Compound 8, 6-O-{2-(5-bromofuryl)-carbonyl}-3',4'-O-isopropylidene-chartreusin]		178	≥ 80		
COC1C(O)C(C)OC(OC2C(Oc3cccc4c(OC(=O)C=Cc5ccco5)c5c(=O)oc6ccc(C)c7c(=O)oc(c34)c5c67)OC(C)C3OC(C)(C)OC32)C1O (stereo not drawn) [Compound 9]		194	≥ 80		
COC1C(O)C(C)OC(OC2C(Oc3cccc4c(OC(=O)c5ccc(C)s5)c5c(=O)oc6ccc(C)c7c(=O)oc(c34)c5c67)OC(C)C3OC(C)(C)OC32)C1O (stereo not drawn) [Compound 12]		194	≥ 80		
COC1C(O)C(C)OC(OC2C(Oc3cccc4c(OC(=O)Cc5cccs5)c5c(=O)oc6ccc(C)c7c(=O)oc(c34)c5c67)OC(C)C3OC(C)(C)OC32)C1O (stereo not drawn) [Compound 13]	134	182	≥ 80		
COC1C(O)C(C)OC(OC2C(Oc3cccc4c(OC(=O)CCCCC5CCSS5)c5c(=O)oc6ccc(C)c7c(=O)oc(c34)c5c67)OC(C)C3OC(c4ccccc4)OC32)C1O (stereo not drawn) [Compound 15]	201			≥ 40	response vs control in vivo at 20 mg/kg (P-388 leukemia cells): 153%
COC1C(O)C(C)OC(OC2C(Oc3cccc4c(OC(=O)C=Cc5c[nH]cn5)c5c(=O)oc6ccc(C)c7c(=O)oc(c34)c5c67)OC(C)C3OC(c4ccccc4)OC32)C1O (stereo not drawn) [Compound 16]	148			≥ 40	
COC1C(O)C(C)OC(OC2C(Oc3cccc4c(OC(=O)c5ccc6[nH]ccc6c5)c5c(=O)oc6ccc(C)c7c(=O)oc(c34)c5c67)OC(C)C3OC(c4ccccc4)OC32)C1O (stereo not drawn) [Compound 18]	242			≥ 40	response vs control in vivo at 20 mg/kg (P-388 leukemia cells): 167%
